Experimental data: patent US20240050428A1 (Cullgen (Shanghai), Inc., priority 2020, published 2024)
Like-named read-outs stand apart in the source and are kept apart here.

Tests used:
MOLM-13 cells = assay: Cell viability assay (CellTiter-Glo) in MOLM-13 cells, alone or with gilteritinib; format: cell-based; settings: Homo sapiens, MOLM-13 cells, three days, CellTiter-Glo
MV4;11 cells = assay: Cell viability assay (CellTiter-Glo) in MV4;11 cells, alone or with gilteritinib; format: cell-based; settings: Homo sapiens, MV4;11 cells, three days, CellTiter-Glo, read-out: MV4
[1] = MOLM-13, 72 h, compound alone (without gilteritinib), read-out: MOLM-13 IC50
[2] = MOLM-13, 72 h, compound with gilteritinib 20 nM, read-out: MOLM-13 IC50 gilteritinib
[3] = MV4-11, 72 h, compound alone (without gilteritinib), 11 IC50
[4] = MV4-11, 72 h, compound with gilteritinib 10 nM, 11 IC50 gilteritinib
[5] = 72 h, compound alone (without gilteritinib), read-out: MOLM-13 IC50
[6] = 72 h, compound with gilteritinib 20 nM, read-out: MOLM-13 IC50 gilteritinib
[7] = 72 h, compound alone (without gilteritinib), 11 IC50
[8] = 72 h, compound with gilteritinib 10 nM, 11 IC50 gilteritinib

Row | IC50 (MOLM-13 cells; [1]) [nM] | IC50 (MOLM-13 cells; [2]) [nM] | IC50 (MV4;11 cells; [3]) [nM] | IC50 (MV4;11 cells; [4]) [nM] | SMILES | IC50 (MOLM-13 cells; [5]) [nM] | IC50 (MOLM-13 cells; [6]) [nM] | IC50 (MV4;11 cells; [7]) [nM] | IC50 (MV4;11 cells; [8]) [nM]
1 | 100 to 1000 | < 10 | 100 to 1000 | 10 to 100 | Cc1nn(CCCCCCNc2ccc3c(c2)C(=O)N(C2CCC(=O)NC2=O)C3=O)c(C)c1-c1ccc2ccccc2n1 (stereo not shown) [GS-549, 5-((6-(3,5-Dimethyl-4-(quinolin-2-yl)-1H-pyrazol-1-yl)hexyl)amino)-2-(2,6-dioxopiperidin-3-yl)isoindoline-1,3-dione] |  |  |  | 
2 | 100 to 1000 | 10 to 100 | 100 to 1000 | 10 to 100 | O=C1CCC(N2C(=O)c3ccc(NCCCCCCn4cc(-c5cnc6ccccc6n5)c(C(F)(F)F)n4)cc3C2=O)C(=O)N1 (stereo not shown) [GS-550, 2-(2,6-Dioxopiperidin-3-yl)-5-((6-(4-(quinoxalin-2-yl)-3-(trifluoromethyl)-1H-pyrazol-1-yl)hexyl)amino)isoindoline-1,3-dione] |  |  |  | 
3 |  |  |  |  | O=C1CCC(N2C(=O)c3ccc(NCCCCC(F)(F)Cn4cc(-c5cnc6ccccc6n5)cn4)cc3C2=O)C(=O)N1 (stereo not shown) [GS-551, 5-((5,5-Difluoro-6-(4-(quinoxalin-2-yl)-1H-pyrazol-1-yl)hexyl)amino)-2-(2,6-dioxopiperidin-3-yl)isoindoline-1,3-dione] | > 1000 | 10 to 100 | > 1000 | 100 to 1000
4 | 100 to 1000 | < 10 | 100 to 1000 | 10 to 100 | O=C1CCC(N2C(=O)c3ccc(NCCCCCCn4cc(-c5cnc6ccccc6n5)c(C5CC5)n4)cc3C2=O)C(=O)N1 (stereo not shown) [GS-552, 5-((6-(3-Cyclopropyl-4-(quinoxalin-2-yl)-1H-pyrazol-1-yl)hexyl)amino)-2-(2,6-dioxopiperidin-3-yl)isoindoline-1,3-dione] |  |  |  | 
5 | > 1000 | 10 to 100 | > 1000 | 10 to 100 | O=C1CCC(N2C(=O)c3ccc(NCCCCCCn4ncc(-c5cnc6ccccc6n5)c4C4CC4)cc3C2=O)C(=O)N1 (stereo not shown) [GS-553, 5-((6-(5-cyclopropyl-4-(quinoxalin-2-yl)-1H-pyrazol-1-yl)hexyl)amino)-2-(2,6-dioxopiperidin-3-yl)isoindoline-1,3-dione] |  |  |  | 
6 | > 1000 | 10 to 100 | 100 to 1000 | 10 to 100 | O=C1CCC(N2C(=O)c3ccc(NCCCCCCn4nc(C(F)(F)F)c(-c5cnc6ccccc6n5)c4C(F)(F)F)cc3C2=O)C(=O)N1 (stereo not shown) [GS-554, 2-(2,6-Dioxopiperidin-3-yl)-5-((6-(4-(quinoxalin-2-yl)-3,5-bis(trifluoromethyl)-1H-pyrazol-1-yl)hexyl)amino)isoindoline-1,3-dione] |  |  |  | 
7 | 100 to 1000 | < 10 | 100 to 1000 | 10 to 100 | O=C1CCC(N2C(=O)c3ccc(NCCCCCCn4cc(-c5cnc6cccc(C(F)(F)F)c6n5)cn4)cc3C2=O)C(=O)N1 (stereo not shown) [GS-555, 2-(2,6-Dioxopiperidin-3-yl)-5-((6-(4-(8-(trifluoromethyl)quinoxalin-2-yl)-1H-pyrazol-1-yl)hexyl)amino)isoindoline-1,3-dione] |  |  |  | 
8 | > 1000 | > 1000 | > 1000 | > 1000 | O=C1CCC(N2C(=O)c3ccc(NC4CC(CCCn5cc(-c6cnc7ccccc7n6)cn5)C4)cc3C2=O)C(=O)N1 (stereo not shown) [GS-556] |  |  |  | 
9 | 10 to 100 | < 10 | 10 to 100 | < 10 | O=C1CCC(N2C(=O)c3ccc(NCCCCCCn4ncc(-c5cnc6ccccc6n5)c4C(F)F)cc3C2=O)C(=O)N1 (stereo not shown) [GS-557, 5-((6-(5-(Difluoromethyl)-4-(quinoxalin-2-yl)-1H-pyrazol-1-yl)hexyl)amino)-2-(2,6-dioxopiperidin-3-yl)isoindoline-1,3-dione] |  |  |  | 
10 |  |  |  |  | O=C1CCC(N2C(=O)c3ccc(NCCC4CC(Cn5cc(-c6cnc7ccccc7n6)cn5)C4)cc3C2=O)C(=O)N1 (stereo not shown) [GS-558, 2-(2,6-Dioxopiperidin-3-yl)-5-((2-(3-((4-(quinoxalin-2-yl)-1H-pyrazol-1-yl)methyl)cyclobutyl)ethyl)amino)isoindoline-1,3-dione] | > 1000 | 10 to 100 | 100 to 1000 | 100 to 1000
11 | 10 to 100 | < 10 | 10 to 100 | 10 to 100 | O=C1CCC(N2C(=O)c3ccc(NCCCCCCn4cc(-c5cnc6ccc(C(F)(F)F)cc6n5)cn4)cc3C2=O)C(=O)N1 (stereo not shown) [GS-559] |  |  |  | 
12 | > 1000 | 10 to 100 | > 1000 | 100 to 1000 | O=C1CCC(N2C(=O)c3ccc(NCCC4CC(n5cc(-c6cnc7ccccc7n6)cn5)C4)cc3C2=O)C(=O)N1 (stereo not shown) [GS-561, 2-(2,6-Dioxopiperidin-3-yl)-5-((2-(3-(4-(quinoxalin-2-yl)-1H-pyrazol-1-yl)cyclobutyl)ethyl)amino)isoindoline-1,3-dione] |  |  |  | 
13 | 10 to 100 | < 10 | 10 to 100 | 10 to 100 | O=C1CCC(N2C(=O)c3ccc(NCCCCCCn4cc(-c5cnc6ccc(C7CC7)cc6n5)cn4)cc3C2=O)C(=O)N1 (stereo not shown) [GS-562, 5-((6-(4-(7-Cyclopropylquinoxalin-2-yl)-1H-pyrazol-1-yl)hexyl)amino)-2-(2,6-dioxopiperidin-3-yl)isoindoline-1,3-dione] |  |  |  | 
14 | 10 to 100 | < 10 | 10 to 100 | < 10 | O=C1CCC(N2C(=O)c3ccc(NCCC4CC5(C4)CC(n4cc(-c6cnc7ccccc7n6)cn4)C5)cc3C2=O)C(=O)N1 (stereo not shown) [GS-564, 2-(2,6-Dioxopiperidin-3-yl)-5-((2-(6-(4-(quinoxalin-2-yl)-1H-pyrazol-1-yl)spiro[3.3]heptan-2-yl)ethyl)amino)isoindoline-1,3-dione] |  |  |  | 
15 | > 1000 | 10 to 100 | > 1000 | 100 to 1000 | O=C1CCC(N2C(=O)c3cccc(NCCCC4CC(n5cc(-c6cnc7ccccc7n6)cn5)C4)c3C2=O)C(=O)N1 (stereo not shown) [GS-565, 2-(2,6-Dioxopiperidin-3-yl)-4-((3-(3-(4-(quinoxalin-2-yl)-1-pyrazol-1-yl)cyclobutyl)propyl)amino)isoindoline-1,3-dione] |  |  |  | 
16 | > 1000 | 100 to 1000 | > 1000 | 100 to 1000 | O=C1CCC(N2C(=O)c3ccc(NCCCC4CC(n5cc(-c6cnc7ccc(CC8CNC8)cc7n6)cn5)C4)cc3C2=O)C(=O)N1 (stereo not shown) [GS-566, 5-((3-(3-(4-(7-(Azetidin-3-ylmethyl)quinoxalin-2-yl)-1H-pyrazol-1-yl)cyclobutyl)propyl)amino)-2-(2,6-dioxopiperidin-3-yl)isoindoline-1,3-dione] |  |  |  | 
17 | 100 to 1000 | < 10 | 100 to 1000 | 10 to 100 | O=C1CCC(N2C(=O)c3ccc(NCCCC4CC(n5cc(-c6cnc7ccc(NC8COC8)cc7n6)cn5)C4)cc3C2=O)C(=O)N1 (stereo not shown) [GS-567, 2-(2,6-Dioxopiperidin-3-yl)-5-((3-(3-(4-(7-(oxetan-3-ylamino)quinoxalin-2-yl)-1H-pyrazol-1-yl)cyclobutyl)propyl)amino)isoindoline-1,3-dione] |  |  |  | 
18 | 10 to 100 | < 10 | 10 to 100 | < 10 | O=C1CCC(N2C(=O)c3ccc(NCCC[C@H]4C[C@H](n5cc(-c6cnc7ccccc7n6)c(C6CC6)n5)C4)cc3C2=O)C(=O)N1 (stereo partly drawn) [GS-568, 5-((3-((trans)-3-(3-Cyclopropyl-4-(quinoxalin-2-yl)-1H-pyrazol-1-yl)cyclobutyl)propyl)amino)-2-(2,6-dioxopiperidin-3-yl)isoindoline-1,3-dione] |  |  |  | 
19 | < 10 | < 10 | < 10 | < 10 | O=C1CCC(N2C(=O)c3ccc(NCCCCCCn4cc(-c5cnc6ccc(N7CCOCC7)cc6n5)c(C5CC5)n4)cc3C2=O)C(=O)N1 (stereo not shown) [GS-569, 5-((6-(3-Cyclopropyl-4-(7-morpholinoquinoxalin-2-yl)-1H-pyrazol-1-yl)hexyl)amino)-2-(2,6-dioxopiperidin-3-yl)isoindoline-1,3-dione] |  |  |  | 
20 | 100 to 1000 | < 10 | 10 to 100 | < 10 | CN1CCN(c2ccc3ncc(-c4cn(CCCCCCNc5ccc6c(c5)C(=O)N(C5CCC(=O)NC5=O)C6=O)nc4C4CC4)nc3c2)CC1 (stereo not shown) [GS-570, 5-((6-(3-Cyclopropyl-4-(7-(4-methylpiperazin-1-yl)quinoxalin-2-yl)-1H-pyrazol-1-yl)hexyl)amino)-2-(2,6-dioxopiperidin-3-yl)isoindoline-1,3-dione] |  |  |  | 
21 | 10 to 100 | < 10 | < 10 | < 10 | O=C1CCC(N2C(=O)c3ccc(NCCCCCCn4cc(-c5cnc6ccc(C7CCOCC7)cc6n5)c(C5CC5)n4)cc3C2=O)C(=O)N1 (stereo not shown) [GS-571, 5-((6-(3-Cyclopropyl-4-(7-(tetrahydro-2H-pyran-4-yl)quinoxalin-2-yl)-1H-pyrazol-1-yl)hexyl)amino)-2-(2,6-dioxopiperidin-3-yl)isoindoline-1,3-dione] |  |  |  | 
22 | 100 to 1000 | < 10 | 10 to 100 | < 10 | CN1CCC(c2ccc3ncc(-c4cn(CCCCCCNc5ccc6c(c5)C(=O)N(C5CCC(=O)NC5=O)C6=O)nc4C4CC4)nc3c2)CC1 (stereo not shown) [GS-572, 5-((6-(3-Cyclopropyl-4-(7-(1-methylpiperidin-4-yl)quinoxalin-2-yl)-1H-pyrazol-1-yl)hexyl)amino)-2-(2,6-dioxopiperidin-3-yl)isoindoline-1,3-dione] |  |  |  | 
